# From US20250059205A1, “Heterocyclic Compounds and Methods of Use” (AMGEN INC., priority 2021, published 2025)
# Tests used:
# [1] = tested on: Phosphorylation of ERK1/2 in AsPC-1 cells; test: Phospho-ERK1/2 MSD Assay (AsPC-1 cells); type: cell-based; conditions: Homo sapiens, ASPC1, 2 h, 2 hours treatment, read-out: p-ERK (AsPC-1 cells) IC50
# In short: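 Read-out: MSD electrochemiluminescent detection of phosphorylated ERK1/2 in whole-cell lysates, fitted to a 4-parameter logistic curve for IC50. Prior to lysis, AsPC-1 cells (25,000 per well) received a 2 h compound dose-response at 37 °C.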
# [2] = target: His-tagged KRAS G12D protein (Homo sapiens, UniProt P01116, G12D); test: KRAS G12D TR-FRET Assay; type: binding
# [3] = target: GDP-bound KRAS protein (aa 1-169), containing both G12D and C118A amino acid substitutions (Homo sapiens, UniProt P01116, C118A/G12D); test: KRAS G12D Coupled Nucleotide Exchange Assay; type: biochemical; conditions: 2 h compound pre-incubation
# Description: Following compound pre-incubation, purified SOS protein (aa 564-1049) and GTP (Roche 10106399001) were added to the assay wells and incubated for an additional 30 min. […] The assay plates were then read on a PerkinElmer EnVision Multilabel Reader, using AlphaScreen® technology, and data were analyzed using a 4-parameter logistic model to calculate IC50 values.
# [4] = tested on: Phosphorylation of ERK1/2 in A-427 cells; test: Phospho-ERK1/2 MSD Assay (A-427 cells); type: cell-based; conditions: Homo sapiens, A-427, 2 h, 2 h treatment, read-out: p-ERK (A427 cells) IC50
# In short: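 ERK1/2 phosphorylation measured by Meso Scale whole-cell lysate assay after A-427 cells were exposed to a titration of compound for 2 h at 37 °C.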
# Sequence of GDP-bound KRAS protein (aa 1-169), containing both G12D and C118A amino acid substitutions (P01116 1-169 isoform P01116-2 G12D/C118A): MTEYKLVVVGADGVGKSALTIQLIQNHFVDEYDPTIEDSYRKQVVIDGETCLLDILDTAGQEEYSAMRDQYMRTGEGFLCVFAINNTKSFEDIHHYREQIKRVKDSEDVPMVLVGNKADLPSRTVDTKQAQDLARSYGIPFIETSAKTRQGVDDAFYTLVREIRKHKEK
# Sequence of His-tagged KRAS G12D protein (P01116 1-188 isoform P01116-2 G12D): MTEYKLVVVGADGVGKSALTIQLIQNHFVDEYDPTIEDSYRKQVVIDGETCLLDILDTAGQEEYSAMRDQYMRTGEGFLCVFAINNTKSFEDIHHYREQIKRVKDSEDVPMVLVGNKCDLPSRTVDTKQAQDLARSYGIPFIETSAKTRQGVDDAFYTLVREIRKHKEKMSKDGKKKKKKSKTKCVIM
SMILES,IC50 [1] [nM],IC50 [2] [nM],Avg 2 h Coupled Exchange IC50 [3] [nM],IC50 [4] [nM]
"CCc1c(F)ccc2cc(O)cc(-c3c(F)cc4c(N5[C@@H]6CC[C@H]5CNC6)nc(OC[C@@]56CCCN5C[C@H](F)C6)nc4c3F)c12 [Example 150, 4-(4-((1R,5S)-3,8-diazabicyclo[3.2.1]octan-8-yl)-6,8-difluoro-2-(((2R,7aS)-2-fluorotetrahydro-1H-pyrrolizin-7a(5H)-yl)methoxy)quinazolin-7-yl)-5-ethyl-6-fluoronaphthalen-2-ol]",94,3,3,30
"CCc1c(F)ccc2cc(O)cc(-c3c(F)cc4c(N5[C@@H]6CNC[C@H]5COC6)nc(OC[C@@]56CCCN5C[C@H](F)C6)nc4c3F)c12 [Example 151, 4-(4-((1R,5S)-3-oxa-7,9-diazabicyclo[3.3.1]nonan-9-yl)-6,8-difluoro-2-(((2R,7aS)-2-fluorotetrahydro-1H-pyrrolizin-7a(5H)-yl)methoxy)quinazolin-7-yl)-5-ethyl-6-fluoronaphthalen-2-ol]",123,4,3,65
"CCc1c(F)ccc2cc(O)cc(-c3ccc4c(N5[C@@H]6CNC[C@H]5COC6)nc(OC[C@@]56CCCN5C[C@H](F)C6)nc4c3F)c12 [Example 152, 4-(4-((1R,5S)-3-oxa-7,9-diazabicyclo[3.3.1]nonan-9-yl)-8-fluoro-2-(((2R,7aS)-2-fluorotetrahydro-1H-pyrrolizin-7a(5H)-yl)methoxy)quinazolin-7-yl)-5-ethyl-6-fluoronaphthalen-2-ol]",76,5,4,73
"CCc1c(F)ccc2cc(O)cc(-c3c(F)cc4c(N5CCC6CCC(C5)N6)nc(OC[C@@]56CCCN5C[C@H](F)C6)nc4c3F)c12 (stereo partly drawn) [Example 153, 4-(4-(3,9-diazabicyclo[4.2.1]nonan-3-yl)-6,8-difluoro-2-(((2R,7aS)-2-fluorotetrahydro-1H-pyrrolizin-7a(5H)-yl)methoxy)quinazolin-7-yl)-5-ethyl-6-fluoronaphthalen-2-ol]",419,6,3,349
"CCc1cccc2cc(O)cc(-c3ccc4c(N5CCC6CCC(C5)N6)nc(OC[C@@]56CCCN5C[C@H](F)C6)nc4c3F)c12 (stereo partly drawn) [Example 154, 4-(4-(3,9-diazabicyclo[4.2.1]nonan-3-yl)-8-fluoro-2-(((2R,7aS)-2-fluorotetrahydro-1H-pyrrolizin-7a(5H)-yl)methoxy)quinazolin-7-yl)-5-ethylnaphthalen-2-ol]",1030,13,12,879
"Fc1cc2c(N3C[C@H]4CC[C@@H](C3)N4)nc(OC[C@@]34CCCN3C[C@H](F)C4)nc2c(F)c1-c1cccc2ccc(F)c(F)c12 [Example 155, 4-((1R,5S)-3,8-diazabicyclo[3.2.1]octan-3-yl)-7-(7,8-difluoronaphthalen-1-yl)-6,8-difluoro-2-(((2R,7aS)-2-fluorotetrahydro-1H-pyrrolizin-7a(5H)-yl)methoxy) quinazoline]",667,5,3,639
"Fc1c(-c2cccc(Cl)c2C(F)(F)F)ccc2c(N3C[C@H]4CC[C@@H](C3)N4)nc(OC[C@@]34CCCN3C[C@H](F)C4)nc12 [Example 156, 4-((1R,5S)-3,8-diazabicyclo[3.2.1]octan-3-yl)-7-(3-chloro-2-(trifluoromethyl)phenyl)-8-fluoro-2-(((2R,7aS)-2-fluorotetrahydro-1H-pyrrolizin-7a(5H)-yl)methoxy) quinazoline]",881,7,3,1180
"Oc1cc(-c2c(F)cc3c(N4C[C@@H]5CC[C@H]4CN5)nc(OC[C@@]45CCCN4C[C@H](F)C5)nc3c2F)c2c(F)c(F)ccc2c1 [Example 157, 4-(4-((1S,4S)-2,5-diazabicyclo[2.2.2]octan-2-yl)-6,8-difluoro-2-(((2R,7aS)-2-fluorotetrahydro-1H-pyrrolizin-7a(5H)-yl)methoxy)quinazolin-7-yl)-5,6-difluoronaphthalen-2-ol]",46,4,4,9
"CCc1c(F)ccc2cc(O)cc(-c3c(F)cc4c(N5[C@@H]6CC[C@H]5CNC6)nc(OC[C@@H]5C[C@@H](F)CN5C)nc4c3F)c12 [Example 158, 4-(4-((1R,5S)-3,8-diazabicyclo[3.2.1]octan-8-yl)-6,8-difluoro-2-(((2S,4R)-4-fluoro-1-methylpyrrolidin-2-yl)methoxy)quinazolin-7-yl)-5-ethyl-6-fluoronaphthalen-2-ol]",511,7,4,228
"Oc1cc(-c2c(F)cc3c(N4C[C@H]5CC[C@@H](C4)N5)nc(OC[C@@]45CCCN4C[C@H](F)C5)nc3c2F)c2c(F)cccc2c1 [Example 159, 4-(4-((1R,5S)-3,8-diazabicyclo[3.2.1]octan-3-yl)-6,8-difluoro-2-(((2R,7aS)-2-fluorotetrahydro-1H-pyrrolizin-7a(5H)-yl)methoxy)quinazolin-7-yl)-5-fluoronaphthalen-2-ol]",77,3,5,13
"CCc1cccc2cc(O)cc(-c3ccc4c(N5[C@@H]6CC[C@H]5CNC6)nc(OC[C@@]56CCCN5C[C@H](F)C6)nc4c3C)c12 [Example 160, 4-(4-((1R,5S)-3,8-diazabicyclo[3.2.1]octan-8-yl)-2-(((2R,7aS)-2-fluorotetrahydro-1H-pyrrolizin-7a(5H)-yl)methoxy)-8-methylquinazolin-7-yl)-5-ethylnaphthalen-2-ol]",754,5,6,410
"CCc1c(F)ccc2cc(O)cc(-c3ccc4c(N5[C@@H]6CC[C@H]5CNC6)nc(OC[C@@]56CCCN5C[C@H](F)C6)nc4c3C)c12 [Example 161, 4-(4-((1R,5S)-3,8-diazabicyclo[3.2.1]octan-8-yl)-2-(((2R,7aS)-2-fluorotetrahydro-1H-pyrrolizin-7a(5H)-yl)methoxy)-8-methylquinazolin-7-yl)-5-ethyl-6-fluoronaphthalen-2-ol]",9750,75,79,10000
"Cc1ccc2cnn(C)c2c1-c1c(F)cc2c(N3C[C@H]4CC[C@@H](C3)N4)nc(OC[C@@]34CCCN3C[C@H](F)C4)nc2c1F [Example 164, 4-((1R,5S)-3,8-diazabicyclo[3.2.1]octan-3-yl)-7-(1,6-dimethyl-1H-indazol-7-yl)-6,8-difluoro-2-(((2R,7aS)-2-fluorotetrahydro-1H-pyrrolizin-7a(5H)-yl)methoxy) quinazoline]",725,7,6,862
"Cc1c(Cl)cc2cn[nH]c2c1-c1ccc2c(N3C[C@H]4CC[C@@H](C3)N4)nc(OC[C@@]34CCCN3C[C@H](F)C4)nc2c1F [Example 165, 4-((1R,5S)-3,8-diazabicyclo[3.2.1]octan-3-yl)-7-(5-chloro-6-methyl-1H-indazol-7-yl)-8-fluoro-2-(((2R,7aS)-2-fluorotetrahydro-1H-pyrrolizin-7a(5H)-yl)methoxy) quinazoline]",3280,27,11,4430
"Cc1c(-c2cc(O)cc3ccc(F)c(F)c23)ccc2c(N3C[C@@H]4CC[C@H]3CN4)nc(OC[C@@]34CCCN3C[C@H](F)C4)nc12 [Example 166, 4-(4-((1S,4S)-2,5-diazabicyclo[2.2.2]octan-2-yl)-2-(((2R,7aS)-2-fluorotetrahydro-1H-pyrrolizin-7a(5H)-yl)methoxy)-8-methylquinazolin-7-yl)-5,6-difluoronaphthalen-2-ol]",1530,94,82,4200
"CCc1cccc2cc(O)cc(-c3ccc4c(N5C[C@H]6CC[C@@H](C5)N6)nc(OC[C@@]56CCCN5C[C@H](F)C6)nc4c3C)c12 [Example 168, 4-(4-((1R,5S)-3,8-diazabicyclo[3.2.1]octan-3-yl)-2-(((2R,7aS)-2-fluorotetrahydro-1H-pyrrolizin-7a(5H)-yl)methoxy)-8-methylquinazolin-7-yl)-5-ethylnaphthalen-2-ol]",243,4,8,78
"CCc1cccc2cc(O)cc(-c3ccc4c(N5C[C@H]6CC[C@@H](C5)N6)nc(OC[C@@]56CCCN5C[C@H](F)C6)nc4c3F)c12 [Example 169, 4-(4-((1R,5S)-3,8-diazabicyclo[3.2.1]octan-3-yl)-8-fluoro-2-(((2R,7aS)-2-fluorotetrahydro-1H-pyrrolizin-7a(5H)-yl)methoxy)quinazolin-7-yl)-5-ethylnaphthalen-2-ol]",72,5,5,9
